Assay results as given in BindingDB's records for doi:10.1016/0014-2999(92)90578-r (Novo Nordisk, 1992).
Where “and” joins values, the source holds several entries; their conditions need not be identical. Identical values can stand only once.

Columns and labels:
[1] = biological target: 5-hydroxytryptamine receptor 2A (Rattus norvegicus, UniProt P14842)
Adenylate cyclase type 2 = Adenylate cyclase type 2 (Rattus norvegicus, UniProt P26769)
D(2) dopamine receptor = D(2) dopamine receptor (Rattus norvegicus, UniProt P61169)
Chain of D(2) dopamine receptor (P61169 whole entry): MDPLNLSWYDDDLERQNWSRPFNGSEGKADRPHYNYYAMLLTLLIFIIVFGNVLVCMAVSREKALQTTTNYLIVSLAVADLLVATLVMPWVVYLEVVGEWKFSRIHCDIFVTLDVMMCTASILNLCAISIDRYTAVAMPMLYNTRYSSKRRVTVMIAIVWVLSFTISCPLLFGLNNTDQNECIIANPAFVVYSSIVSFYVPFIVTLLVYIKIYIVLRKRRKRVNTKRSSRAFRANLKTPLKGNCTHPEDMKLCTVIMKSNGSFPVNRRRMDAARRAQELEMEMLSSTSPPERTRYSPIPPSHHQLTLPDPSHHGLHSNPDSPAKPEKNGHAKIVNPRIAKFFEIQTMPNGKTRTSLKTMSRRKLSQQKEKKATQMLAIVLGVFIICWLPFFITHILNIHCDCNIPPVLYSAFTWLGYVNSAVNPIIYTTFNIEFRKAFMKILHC

D(1A) dopamine receptor = D(1A) dopamine receptor (Rattus norvegicus, UniProt P18901)
Chain of D(1A) dopamine receptor (P18901 whole entry): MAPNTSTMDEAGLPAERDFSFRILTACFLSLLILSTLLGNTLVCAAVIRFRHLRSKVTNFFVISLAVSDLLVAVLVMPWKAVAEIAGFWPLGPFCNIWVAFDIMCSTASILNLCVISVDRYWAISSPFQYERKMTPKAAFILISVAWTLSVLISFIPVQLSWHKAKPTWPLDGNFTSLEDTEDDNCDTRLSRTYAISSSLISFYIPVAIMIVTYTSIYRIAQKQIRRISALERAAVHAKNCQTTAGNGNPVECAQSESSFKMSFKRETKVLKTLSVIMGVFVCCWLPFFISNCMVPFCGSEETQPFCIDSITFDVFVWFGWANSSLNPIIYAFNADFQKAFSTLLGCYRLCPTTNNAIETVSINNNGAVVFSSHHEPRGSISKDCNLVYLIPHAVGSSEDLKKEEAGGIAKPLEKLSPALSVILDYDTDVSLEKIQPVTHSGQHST

Chain of 5-hydroxytryptamine receptor 2A (P14842 whole entry): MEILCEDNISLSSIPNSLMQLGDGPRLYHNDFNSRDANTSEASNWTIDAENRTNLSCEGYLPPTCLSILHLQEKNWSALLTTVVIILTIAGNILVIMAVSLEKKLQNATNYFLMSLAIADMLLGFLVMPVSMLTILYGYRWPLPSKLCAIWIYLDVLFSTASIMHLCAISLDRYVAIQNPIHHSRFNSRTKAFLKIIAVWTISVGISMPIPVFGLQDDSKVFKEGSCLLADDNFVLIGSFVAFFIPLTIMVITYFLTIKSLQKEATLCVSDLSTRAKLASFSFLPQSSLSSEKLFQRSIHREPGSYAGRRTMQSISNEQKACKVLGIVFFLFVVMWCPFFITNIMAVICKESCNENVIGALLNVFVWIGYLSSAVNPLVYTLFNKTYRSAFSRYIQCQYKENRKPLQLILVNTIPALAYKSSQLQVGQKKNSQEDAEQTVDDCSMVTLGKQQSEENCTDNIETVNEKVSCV
Chain of Adenylate cyclase type 2 (P26769 whole entry): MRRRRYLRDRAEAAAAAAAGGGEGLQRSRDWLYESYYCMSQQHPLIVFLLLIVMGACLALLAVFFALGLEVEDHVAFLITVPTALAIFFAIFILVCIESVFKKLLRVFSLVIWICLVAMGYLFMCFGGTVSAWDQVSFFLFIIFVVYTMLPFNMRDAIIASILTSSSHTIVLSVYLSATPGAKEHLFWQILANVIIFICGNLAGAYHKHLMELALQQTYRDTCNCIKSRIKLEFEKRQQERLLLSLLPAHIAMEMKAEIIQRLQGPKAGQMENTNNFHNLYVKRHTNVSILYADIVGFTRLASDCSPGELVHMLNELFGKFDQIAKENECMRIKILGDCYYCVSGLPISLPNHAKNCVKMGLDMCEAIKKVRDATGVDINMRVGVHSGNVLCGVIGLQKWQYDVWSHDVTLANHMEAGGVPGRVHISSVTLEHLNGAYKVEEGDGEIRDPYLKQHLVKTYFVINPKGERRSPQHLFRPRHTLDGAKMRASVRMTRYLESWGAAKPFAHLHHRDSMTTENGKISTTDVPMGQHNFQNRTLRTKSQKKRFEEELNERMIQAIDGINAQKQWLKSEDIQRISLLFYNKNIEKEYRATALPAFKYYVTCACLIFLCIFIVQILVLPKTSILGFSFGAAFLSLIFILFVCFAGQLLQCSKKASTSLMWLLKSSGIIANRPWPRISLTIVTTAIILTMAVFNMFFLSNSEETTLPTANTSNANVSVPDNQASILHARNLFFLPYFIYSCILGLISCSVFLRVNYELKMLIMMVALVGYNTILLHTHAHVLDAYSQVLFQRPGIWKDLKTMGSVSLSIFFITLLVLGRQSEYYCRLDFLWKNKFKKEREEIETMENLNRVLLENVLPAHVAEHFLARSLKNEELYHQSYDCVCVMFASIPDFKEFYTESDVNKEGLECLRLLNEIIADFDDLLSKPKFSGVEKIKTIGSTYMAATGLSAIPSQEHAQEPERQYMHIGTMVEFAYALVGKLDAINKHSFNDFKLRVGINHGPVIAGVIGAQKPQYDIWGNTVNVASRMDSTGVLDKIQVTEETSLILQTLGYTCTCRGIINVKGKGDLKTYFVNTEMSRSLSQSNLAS

Row | Compound | Ki [1] | Ki (Adenylate cyclase type 2) | Ki (D(2) dopamine receptor) | Ki (D(1A) dopamine receptor)
1 | Oc1cc2c(cc1O)[C@@H](c1ccccc1)CNCC2 | > 10 µM | 0.415 µM | – | –
2 | CN1CCc2cc(Cl)c(O)cc2[C@@H](c2cccc3ccoc23)C1 | – | 0.0028 µM | 0.898 µM and 0.988 µM | –
3 | CN1CCc2cc([N+](=O)[O-])c(O)cc2C(c2cccc3c2OCC3)C1 (stereo not drawn) [CAS_164252] | 0.355 µM | 0.0091 µM | > 10 µM | 0.0058 µM
4 | CN1CCc2cc(Cl)c(O)cc2C(c2cccc3c2OCC3)C1 (stereo not drawn) [NSC_132421] | 0.0045 µM | 0.0022 µM | 0.942 µM | 0.00017 µM
5 | CN1CCc2cc(Cl)c(O)cc2[C@@H](c2ccccc2)C1 [SCH 23390,R(+)] | – | 0.0399 µM | – | –
